In patent US4619925A, “3-Propenyl cephalosporin derivatives” (priority 1985, dated 1986):
Values after ≈ are worked out from the molar mass of the structure shown. Like-named read-outs stand apart in the source and are kept apart here.

Tests used:
[1] = tested on: Gn-Ia organisms (Gram-negative bacteria sensitive to ampicillin and cephalothin); assay: In vitro activity, agar dilution, group of five strains; format: cell-based
Description: (§1) Each of these groups of organisms is constituted of five individual strains of microorganism. The Gp-Ia organisms are Gram-positive staphylococci which are sensitive to penicillin. The Gp-Ib organisms are Gram-positive staphylococci which are resistant to penicillin and produce penicillinase. The Gn-Ia organisms are Gram-negative bacteria which are sensitive to ampicillin and cephalothin. The Gn-Ib organisms are Gram-negative bacteria which are resistant to ampicillin and cephalothin.

Mouse blood levels = conditions: mouse; for half-life: T 1/2
Description: Table 3 contains comparative blood level data for mice treated orally and intramuscularly with the hydroxyphenylglycyl derivatives.

Mouse urinary recovery = format: in vivo, mice; conditions: mouse, urine, po, 20 mg/kg; for dose excreted at 24 h: p.o.
K. pneumoniae D11 = assay: MIC, agar dilution technique (Mueller-Hinton Agar); format: cell-based; conditions: Klebsiella pneumoniae; K. pneumoniae D11; Gn-Ia, ampicillin and cephalothin sensitive; read-out: Minimum Inhibitory Concentration
Description: as §1

K. pneumoniae A20346 = assay: MIC, agar dilution technique (Mueller-Hinton Agar); format: cell-based; conditions: Klebsiella pneumoniae; K. pneumoniae A20346; Gn-Ib, ampicillin and cephalothin resistant; read-out: Minimum Inhibitory Concentration
Description: as §1

P. mirabilis A9900 = assay: MIC, agar dilution technique (Mueller-Hinton Agar); format: cell-based; conditions: Proteus mirabilis; P. mirabilis A9900; Gn-Ia, ampicillin and cephalothin sensitive; read-out: Minimum Inhibitory Concentration
Description: as §1

S. aureus A9497 = assay: MIC, agar dilution technique (Mueller-Hinton Agar); format: cell-based; conditions: Staphylococcus aureus, Gp-Ia, penicillin sensitive, read-out: Minimum Inhibitory Concentration
Description: as §1

E. coli Juhl = assay: MIC, agar dilution technique (Mueller-Hinton Agar); format: cell-based; conditions: Escherichia coli; E. coli Juhl; Gn-Ia, ampicillin and cephalothin sensitive; read-out: Minimum Inhibitory Concentration
Description: as §1

S. aureus BX-1633-2 = assay: MIC, agar dilution technique (Mueller-Hinton Agar); format: cell-based; conditions: Staphylococcus aureus, BX16332; S. aureus BX-1633-2; Gp-Ib, penicillin resistant; read-out: Minimum Inhibitory Concentration
Description: as §1

E coli RGN-823 = assay: MIC, agar dilution technique (Mueller-Hinton Agar); format: cell-based; conditions: Escherichia coli, RGN823, Gn-Ib, ampicillin and cephalothin resistant, read-out: Minimum Inhibitory Concentration
Description: as §1

E. coli A20341-1 = assay: MIC, agar dilution technique (Mueller-Hinton Agar); format: cell-based; conditions: Escherichia coli, A203411; E. coli A20341-1; Gn-Ib, ampicillin and cephalothin resistant; read-out: Minimum Inhibitory Concentration
Description: as §1

S. aureus A9601 = assay: MIC, agar dilution technique (Mueller-Hinton Agar); format: cell-based; conditions: Staphylococcus aureus; S. aureus A9601; Gp-Ia, penicillin sensitive; read-out: Minimum Inhibitory Concentration
Description: as §1

S. aureus Russell = assay: MIC, agar dilution technique (Mueller-Hinton Agar); format: cell-based; conditions: Staphylococcus aureus; S. aureus Russell; Gp-Ib, penicillin resistant; read-out: Minimum Inhibitory Concentration
Description: as §1

S. aureus A15092 = assay: MIC, agar dilution technique (Mueller-Hinton Agar); format: cell-based; conditions: Staphylococcus aureus, Gp-Ib, penicillin resistant, read-out: Minimum Inhibitory Concentration
Description: as §1

S. aureus A9602 = assay: MIC, agar dilution technique (Mueller-Hinton Agar); format: cell-based; conditions: Staphylococcus aureus; S. aureus A9602; Gp-Ib, penicillin resistant; read-out: Minimum Inhibitory Concentration
Description: as §1

S. aureus Terajima = assay: MIC, agar dilution technique (Mueller-Hinton Agar); format: cell-based; conditions: Staphylococcus aureus, Gp-Ia, penicillin sensitive, read-out: Minimum Inhibitory Concentration
Description: as §1

K. pneumoniae A20345 = assay: MIC, agar dilution technique (Mueller-Hinton Agar); format: cell-based; conditions: Klebsiella pneumoniae, Gn-Ib, ampicillin and cephalothin resistant, read-out: Minimum Inhibitory Concentration
Description: as §1

E. coli A15148 = assay: MIC, agar dilution technique (Mueller-Hinton Agar); format: cell-based; conditions: Escherichia coli; E. coli A15148; Gn-Ib, ampicillin and cephalothin resistant; read-out: Minimum Inhibitory Concentration
Description: as §1

S. aureus Smith = assay: MIC, agar dilution technique (Mueller-Hinton Agar); format: cell-based; conditions: Staphylococcus aureus, Gp-Ia, penicillin sensitive, read-out: Minimum Inhibitory Concentration
Description: as §1

S. aureus A9534 = assay: MIC, agar dilution technique (Mueller-Hinton Agar); format: cell-based; conditions: Staphylococcus aureus, Gp-Ia, penicillin sensitive, read-out: Minimum Inhibitory Concentration
Description: as §1

P. mirabilis A9554 = assay: MIC, agar dilution technique (Mueller-Hinton Agar); format: cell-based; conditions: Proteus mirabilis; P. mirabilis A9554; Gn-Ia, ampicillin and cephalothin sensitive; read-out: Minimum Inhibitory Concentration
Description: as §1

S. aureus No. 193 = assay: MIC, agar dilution technique (Mueller-Hinton Agar); format: cell-based; conditions: Staphylococcus aureus, Gp-Ib, penicillin resistant, read-out: Minimum Inhibitory Concentration
Description: as §1

E. coli A9660 = assay: MIC, agar dilution technique (Mueller-Hinton Agar); format: cell-based; conditions: Escherichia coli; E. coli A9660; Gn-Ia, ampicillin and cephalothin sensitive; read-out: Minimum Inhibitory Concentration
Description: as §1

For `C/C=C\C1=C(C(=O)O)N2C(=O)C(NC(=O)[C@H](N)c3ccc(O)cc3)[C@H]2SC1` (stereo partly drawn) [BMY-28100, 7-[D-2-amino-2-(4-hydroxyphenyl)acetamido]-3-[(Z)-1-propen-1-yl]-3-cephem-4-carboxylic acid], the “activity relative to cephalexin and cefaclor” value [1] was “more active than cephalexin and slightly better than cefaclor”, the concentration at 10 min (Mouse blood levels; blood, im, 20 mg/kg) was 14000 ng/mL and the concentration at 20 min (Mouse blood levels; blood, im, 20 mg/kg) was 15000 ng/mL. The concentration at 0.5 h (Mouse blood levels; blood, im, 20 mg/kg) was 12000 ng/mL, the concentration at 40 min (Mouse blood levels; blood, im, 20 mg/kg) was 8500 ng/mL and the concentration at 50 min (Mouse blood levels; blood, im, 20 mg/kg) was 7500 ng/mL. For the same compound, the concentration at 1 h (Mouse blood levels; blood, im, 20 mg/kg) was 5400 ng/mL, the concentration at 1.5 h (Mouse blood levels; blood, im, 20 mg/kg) was 2500 ng/mL and the concentration at 2 h (Mouse blood levels; blood, im, 20 mg/kg) was 1600 ng/mL. The concentration at 0.5 h (Mouse blood levels; blood, po, 20 mg/kg) was 9300 ng/mL, the concentration at 1 h (Mouse blood levels; blood, po, 20 mg/kg) was 6900 ng/mL and the concentration at 2 h (Mouse blood levels; blood, po, 20 mg/kg) was 4200 ng/mL. For the same compound, the concentration at 3 h (Mouse blood levels; blood, po, 20 mg/kg) was 2500 ng/mL, the concentration at 4 h (Mouse blood levels; blood, po, 20 mg/kg) was 970 ng/mL and the concentration at 5 h (Mouse blood levels; blood, po, 20 mg/kg) was 810 ng/mL. It also gave a concentration at 6 h (Mouse blood levels; blood, po, 20 mg/kg) of 650 ng/mL, a concentration at 7 h (Mouse blood levels; blood, po, 20 mg/kg) of 340 ng/mL and a concentration at 0.5 h (Mouse blood levels; blood, po, 100 mg/kg) of 33000 ng/mL. For the same compound, the concentration at 1 h (Mouse blood levels; blood, po, 100 mg/kg) was 17000 ng/mL, the concentration at 2 h (Mouse blood levels; blood, po, 100 mg/kg) was 6500 ng/mL and the concentration at 3 h (Mouse blood levels; blood, po, 100 mg/kg) was 4500 ng/mL. For the same compound, the concentration at 4 h (Mouse blood levels; blood, po, 100 mg/kg) was 3300 ng/mL, the concentration at 5 h (Mouse blood levels; blood, po, 100 mg/kg) was 2700 ng/mL and the concentration at 6 h (Mouse blood levels; blood, po, 100 mg/kg) was 2500 ng/mL. It also gave a concentration at 7 h (Mouse blood levels; blood, po, 100 mg/kg) of 1700 ng/mL, an AUC (Mouse blood levels; in vivo, im, 20 mg/kg) of 13000 ng·h/mL and a half-life (Mouse blood levels; in vivo, im, 20 mg/kg) of 0.52 h. The Cmax (Mouse blood levels; in vivo, po, 20 mg/kg) was 12000 ng/mL, the “T 1/2” value (Mouse blood levels; in vivo, po, 20 mg/kg) was 2.3 h and the AUC (Mouse blood levels; in vivo, po, 20 mg/kg) was 20000 ng·h/mL. It also gave a half-life (Mouse blood levels; in vivo, po, 20 mg/kg) of 1.4 h, an AUC (Mouse blood levels; in vivo, po, 100 mg/kg) of 51000 ng·h/mL and a half-life (Mouse blood levels; in vivo, po, 100 mg/kg) of 2.1 h. It also gave a dose excreted at 2 h (Mouse urinary recovery; 0-2 hr) of 60%, a dose excreted at 4 h (Mouse urinary recovery; 2-4 hr) of 5.3% and a dose excreted at 6 h (Mouse urinary recovery; 4-6 hr) of 1.3%. It also gave a dose excreted at 24 h (Mouse urinary recovery; 6-24 hr, read-out: Mouse urinary recovery 6-24 hr) of 2.3%, a dose excreted at 24 h (Mouse urinary recovery; total, read-out: Mouse urinary recovery Total) of 69% and an MIC (K. pneumoniae D11) of 0.8 µg/mL (≈ 2.05 µM). For the same compound, the MIC (K. pneumoniae A20346) was 25 µg/mL (≈ 64.2 µM), the MIC (P. mirabilis A9900) was 0.8 µg/mL (≈ 2.05 µM) and the MIC (S. aureus A9497) was 0.4 µg/mL (≈ 1.03 µM). The MIC (E. coli Juhl) was 1.6 µg/mL (≈ 4.11 µM), the MIC (S. aureus BX-1633-2) was 0.8 µg/mL (≈ 2.05 µM) and the MIC (E coli RGN-823) was greater than 50 µg/mL. For the same compound, the MIC (E. coli A20341-1) was 25 µg/mL (≈ 64.2 µM), the MIC (S. aureus A9601) was 0.8 µg/mL (≈ 2.05 µM) and the MIC (S. aureus Russell) was 0.8 µg/mL (≈ 2.05 µM). For the same compound, the MIC (S. aureus A15092) was 1.6 µg/mL (≈ 4.11 µM), the MIC (S. aureus A9602) was 0.8 µg/mL (≈ 2.05 µM) and the MIC (S. aureus Terajima) was 0.4 µg/mL (≈ 1.03 µM). The MIC (K. pneumoniae A20345) was 6.3 µg/mL (≈ 16.2 µM), the MIC (E. coli A15148) was 50 µg/mL (≈ 128 µM) and the MIC (S. aureus Smith) was 0.4 µg/mL (≈ 1.03 µM). It also gave an MIC (S. aureus A9534) of 0.4 µg/mL (≈ 1.03 µM), an MIC (P. mirabilis A9554) of 0.8 µg/mL (≈ 2.05 µM) and an MIC (S. aureus No. 193) of 1.6 µg/mL (≈ 4.11 µM). The MIC (E. coli A9660) was 0.8 µg/mL (≈ 2.05 µM).
